The text below walks through data of patent publication US10544103B2, “5-HT2 antagonists” (ANAMAR AB, priority 2015, dated 2020).

The target of this test is T1, 5-HT2B receptor (Homo sapiens, UniProt P41595).
T1 construct: host or cells: CHO-K1
The experiment in a line: 5-HT2B receptor binding, 3H-LSD ligand displacement assay. To be noted: for inhibition at 0.001 µM: 0.001 uM compound; for inhibition at 0.01 µM: 0.01 uM compound; for inhibition at 0.1 µM: 0.1 uM compound. How it is done:
5-HT2B receptor binding (performed at Eurofins Panlabs Taiwan, Ltd.) to human receptor protein expressed in CHO-K1 cells was determined in a ligand displacement assay using ^3H-lysergic acid diethylamide (LSD) as radioligand and ketanserine as a standard reference compound. Data is presented as % displacement of radioligand at indicated compound concentrations, see Table 1 and Table 2.

T1 sequence (P41595 whole entry): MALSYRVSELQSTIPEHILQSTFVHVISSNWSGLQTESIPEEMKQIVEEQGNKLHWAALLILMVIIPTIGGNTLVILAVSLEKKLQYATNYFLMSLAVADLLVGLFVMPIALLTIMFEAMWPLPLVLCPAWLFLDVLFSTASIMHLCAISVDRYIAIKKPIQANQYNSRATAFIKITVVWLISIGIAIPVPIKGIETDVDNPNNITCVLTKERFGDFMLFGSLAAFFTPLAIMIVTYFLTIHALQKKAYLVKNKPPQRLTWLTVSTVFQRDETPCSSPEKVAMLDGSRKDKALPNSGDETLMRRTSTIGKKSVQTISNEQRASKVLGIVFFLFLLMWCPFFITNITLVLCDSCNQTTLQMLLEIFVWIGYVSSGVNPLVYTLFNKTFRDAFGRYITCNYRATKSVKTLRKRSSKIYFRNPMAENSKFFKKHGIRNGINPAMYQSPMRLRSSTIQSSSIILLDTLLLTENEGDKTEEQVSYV

In the case of `COc1c(Cl)cccc1C1=NN(C(=N)NC2CC2)CC1C` (stereo not drawn) [Example 86, 3-(3-Chloro-2-methoxyphenyl)-N-cyclopropyl-4-methyl-4,5-dihydro-1H-pyrazole-1-carboximidamide], the inhibition (usually the drop in the measured response relative to a control, in per cent) at 0.001 µM was -14%; the inhibition at 0.01 µM was found to be 29%; the inhibition at 0.1 µM was 83%.

As for `CC1CN(C(=N)N)N=C1c1cccc(Cl)c1O` (stereo not drawn) [Example 54, 3-(3-Chloro-2-hydroxyphenyl)-4-methyl-4,5-dihydro-1H-pyrazole-1-carboximidamide], the inhibition at 0.01 µM came out at 81% and the inhibition at 0.1 µM worked out at 95%. Moreover, the inhibition at 1 µM (1 uM compound) came to 101%.

As for `CC1CN(C(=N)NC2CCCCC2)N=C1c1cccc(Cl)c1O` (stereo not drawn) [Example 85, 3-(3-Chloro-2-hydroxyphenyl)-N-cyclohexyl-4-methyl-4,5-dihydro-1H-pyrazole-1-carboximidamide], the inhibition at 0.001 µM is 47%, the inhibition at 0.01 µM came to 93% and the inhibition at 0.1 µM turned out to be 101%.

For the compound `CCCCCCCCCCCCNC(=N)N1CC(C)C(c2cccc(Cl)c2O)=N1` (stereo not drawn) [Example 83, 3-(3-Chloro-2-hydroxyphenyl)-N-dodecyl-4-methyl-4,5-dihydro-1H-pyrazole-1-carboximidamide], the inhibition at 0.001 µM worked out at 3%, the inhibition at 0.01 µM is 23% and the inhibition at 0.1 µM is 82%.

With `N=C(N)N1CCC(c2ccccc2Br)=N1` [Example 4, 3-(2-Bromophenyl)-4,5-dihydro-1H-pyrazole-1-carboximidamide], for the setting “1 uM compound”, the inhibition at 1 µM is 89%. Further, under “10 uM compound”, the inhibition at 10 µM worked out at 101%.

With `COc1ccc(F)cc1C1=NN(C(=N)N)CC1C` (stereo not drawn) [Example 45, 3-(5-Fluoro-2-methoxyphenyl)-4-methyl-4,5-dihydro-1H-pyrazole-1-carboximidamide], the inhibition at 0.01 µM was found to be 26% and the inhibition at 0.1 µM came out at 54%. Besides, the inhibition at 1 µM (1 uM compound) amounted to 86%.

Regarding `CC1CN(C(=N)NCc2ccccc2)N=C1c1ccccc1O` (stereo not drawn) [Example 42, N-Benzyl-3-(2-hydroxyphenyl)-4-methyl-4,5-dihydro-1H-pyrazole-1-carboximidamide], the inhibition at 0.001 µM worked out at 49%, the inhibition at 0.01 µM amounted to 97% and the inhibition at 0.1 µM came out at 98%. Besides, the inhibition at 1 µM (1 uM compound) was 99%.

As for `CC1CN(C(=N)N)N=C1c1c[nH]c2ccccc12` (stereo not drawn) [Example 70, 3-(1H-Indol-3-yl)-4-methyl-4,5-dihydro-1H-pyrazole-1-carboximidamide], the inhibition at 0.01 µM came to 38% and the inhibition at 0.1 µM worked out at 84%. Moreover, the inhibition at 1 µM (1 uM compound) turned out to be 98%.

As to `CC1CN(C(=N)N)N=C1c1cccc(F)c1O` (stereo not drawn) [Example 48, 3-(3-Fluoro-2-hydroxyphenyl)-4-methyl-4,5-dihydro-1H-pyrazole-1-carboximidamide], the inhibition at 0.01 µM amounted to 54% and the inhibition at 0.1 µM was found to be 85%. For the same compound, the inhibition at 1 µM (1 uM compound) was 95%.

With `CC1CN(C(=N)N)N=C1c1ccc(F)cc1O` (stereo not drawn) [Example 50, 3-(4-Fluoro-2-hydroxyphenyl)-4-methyl-4,5-dihydro-1H-pyrazole-1-carboximidamide], the inhibition at 0.01 µM turned out to be 42% and the inhibition at 0.1 µM turned out to be 87%. Besides, the inhibition at 1 µM (1 uM compound) was 96%.

`CC1CN(C(=N)NC2CC2)N=C1c1cccc(Cl)c1O` (stereo not drawn) [Example 87, 3-(3-Chloro-2-hydroxyphenyl)-N-cyclopropyl-4-methyl-4,5-dihydro-1H-pyrazole-1-carboximidamide]: the inhibition at 0.001 µM was 24%, the inhibition at 0.01 µM came to 84% and the inhibition at 0.1 µM worked out at 100%.

`CC1CC(c2ccccc2Cl)=NN1C(=N)N` (stereo not drawn) [Example 25, 3-(2-Chlorophenyl)-5-methyl-4,5-dihydro-1H-pyrazole-1-carboximidamide]: the inhibition at 0.1 µM came out at 54%. Moreover, the inhibition at 1 µM (1 uM compound) worked out at 91%.

Regarding `CC1CN(C(=N)NCc2ccccc2Cl)N=C1c1ccccc1O` (stereo not drawn) [Example 56, N-(2-Chlorobenzyl)-3-(2-hydroxyphenyl)-4-methyl-4,5-dihydro-1H-pyrazole-1-carboximidamide], the inhibition at 0.001 µM worked out at 52% and the inhibition at 0.01 µM came to 95%.

Turning to `CC1CN(C(=N)N[C@H](C)c2ccccc2)N=C1c1ccccc1O` (stereo partly drawn) [Example 63, 3-(2-Hydroxyphenyl)-4-methyl-N—((R)-1-phenylethyl)-4,5-dihydro-1H-pyrazole-1-carboximidamide], the inhibition at 0.001 µM is 36% and the inhibition at 0.01 µM is 81%.

As for `COc1c(Cl)cccc1C1=NN(C(=N)N)CC1C` (stereo not drawn) [Example 53, 3-(3-Chloro-2-methoxyphenyl)-4-methyl-4,5-dihydro-1H-pyrazole-1-carboximidamide], the inhibition at 0.01 µM was determined as 40% and the inhibition at 0.1 µM was determined as 87%. Further, the inhibition at 1 µM (1 uM compound) came to 100%.

Consider `CC1(C)CN(C(=N)N)N=C1c1ccccc1O` [Example 32, 3-(2-Hydroxyphenyl)-4,4-dimethyl-4,5-dihydro-1H-pyrazole-1-carboximidamide], for which the inhibition at 0.1 µM was 28%. Further, the inhibition at 1 µM (1 uM compound) was 79%.

Take `COc1cc(CNC(=N)N2CC(C)C(c3ccccc3O)=N2)cc(OC)c1` (stereo not drawn) [Example 61, N-(3,5-Dimethoxybenzyl)-3-(2-hydroxyphenyl)-4-methyl-4,5-dihydro-1H-pyrazole-1-carboximidamide]: the inhibition at 0.001 µM was found to be 13% and the inhibition at 0.01 µM was found to be 36%.

Take `COc1ccc(C2=NN(C(=N)N)CC2)cc1OC` [Example 16, 3-(3,4-Dimethoxyphenyl)-4,5-dihydro-1H-pyrazole-1-carboximidamide, reference compound]: the inhibition at 1 µM (1 uM compound) turned out to be 6%. Moreover, under “10 uM compound”, the inhibition at 10 µM turned out to be 42%.

For `CC1CN(C(=N)N)N=C1c1cccc2ccccc12` (stereo not drawn) [Example 24, 4-Methyl-3-(naphthalen-1-yl)-4,5-dihydro-1H-pyrazole-1-carboximidamide], the inhibition at 0.01 µM turned out to be 39% and the inhibition at 0.1 µM stood at 86%. The inhibition at 1 µM (1 uM compound) is 102%.

Regarding `CCOC(=O)NC(=N)N1CC(C)C(c2cccc(Cl)c2O)=N1` (stereo not drawn) [Example 119, Ethyl ((3-(3-chloro-2-hydroxyphenyl)-4-methyl-4,5-dihydro-1H-pyrazol-1-yl)(imino)methyl)carbamate], the inhibition at 0.01 µM was found to be 50% and the inhibition at 0.1 µM worked out at 89%. Moreover, the inhibition at 1 µM (1 uM compound) was 99%.

As for `CCCCNC(=N)N1CC(C)C(c2cccc(Cl)c2OC)=N1` (stereo not drawn) [Example 78, N-butyl-3-(3-chloro-2-methoxyphenyl)-4-methyl-4,5-dihydro-1H-pyrazole-1-carboximidamide], the inhibition at 0.001 µM was 49%, the inhibition at 0.01 µM was 85% and the inhibition at 0.1 µM came to 98%.

Turning to `COc1ccccc1C1=NN(C(=N)Nc2ccc(Cl)cc2)CC1C` (stereo not drawn) [Example 102, N-(4-Chlorophenyl)-3-(2-methoxyphenyl)-4-methyl-4,5-dihydro-1H-pyrazole-1-carboximidamide], the inhibition at 0.001 µM worked out at 17%, the inhibition at 0.01 µM was 44% and the inhibition at 0.1 µM is 92%.

On to “(R)-3-(2-Hydroxyphenyl)-4-methyl-4,5-dihydro-1H-pyrazole-1-carboximidamide [Example 36]”, for which the “5-HT2B receptor binding (% displacement)” value (1 uM compound) amounted to 90% and the “5-HT2B receptor binding (% displacement)” value (10 uM compound) came out at 99%.

With `CC1CN(C(=N)N)N=C1c1ccc(O)cc1O` (stereo not drawn) [Example 67, 3-(2,4-Dihydroxyphenyl)-4-methyl-4,5-dihydro-1H-pyrazole-1-carboximidamide], the inhibition at 0.01 µM stood at 9% and the inhibition at 0.1 µM is 31%. Moreover, the inhibition at 1 µM (1 uM compound) was 72%.

For `CC1CN(C(=N)N)N=C1c1cc(Cl)ccc1O` (stereo not drawn) [Example 52, 3-(5-Chloro-2-hydroxyphenyl)-4-methyl-4,5-dihydro-1H-pyrazole-1-carboximidamide], the inhibition at 0.01 µM is 34% and the inhibition at 0.1 µM was determined as 72%. In addition, the inhibition at 1 µM (1 uM compound) was found to be 95%.

Consider `N=C(N)N1CCC(c2ccccc2Cl)=N1` [Example 5, 3-(2-Chlorophenyl)-4,5-dihydro-1H-pyrazole-1-carboximidamide], for which the inhibition at 1 µM (1 uM compound) came out at 95%. Further, the inhibition at 10 µM (10 uM compound) amounted to 100%.

For the compound `COc1cc(F)ccc1C1=NN(C(=N)N)CC1C` (stereo not drawn) [Example 49, 3-(4-Fluoro-2-methoxyphenyl)-4-methyl-4,5-dihydro-1H-pyrazole-1-carboximidamide], the inhibition at 0.01 µM turned out to be 11% and the inhibition at 0.1 µM came out at 28%. For the same compound, the inhibition at 1 µM (1 uM compound) was found to be 78%.

With `CCCCCCNC(=N)N1CC(C)C(c2cccc(Cl)c2OC)=N1` (stereo not drawn) [Example 80, 3-(3-Chloro-2-methoxyphenyl)-N-hexyl-4-methyl-4,5-dihydro-1H-pyrazole-1-carboximidamide], the inhibition at 0.001 µM was 13%, the inhibition at 0.01 µM amounted to 68% and the inhibition at 0.1 µM was 97%.

Turning to `COc1c(Cl)cccc1C1=NN(C(=N)Nc2ccc(F)cc2)CC1C` (stereo not drawn) [Example 108, 3-(3-Chloro-2-methoxyphenyl)-N-(4-fluorophenyl)-4-methyl-4,5-dihydro-1H-pyrazole-1-carboximidamide], the inhibition at 0.001 µM came to 29%, the inhibition at 0.01 µM was 83% and the inhibition at 0.1 µM was determined as 101%.

As for `CC1CN(C(=N)Nc2ccc(C(F)(F)F)cc2)N=C1c1cccc(Cl)c1O` (stereo not drawn) [Example 113, 3-(3-Chloro-2-hydroxyphenyl)-4-methyl-N-(4-(trifluoromethyl)phenyl)-4,5-dihydro-1H-pyrazole-1-carboximidamide], the inhibition at 0.001 µM is 59%, the inhibition at 0.01 µM came out at 95% and the inhibition at 0.1 µM came to 99%.

Turning to `COc1ccc(CNC(=N)N2CC(C)C(c3ccccc3O)=N2)cc1` (stereo not drawn) [Example 59, 3-(2-Hydroxyphenyl)-N-(4-methoxybenzyl)-4-methyl-4,5-dihydro-1H-pyrazole-1-carboximidamide], the inhibition at 0.001 µM was determined as 20% and the inhibition at 0.01 µM is 74%.
